Data on 2 molecules can be found in ChEMBL document CHEMBL4725437, “P450s under Restriction (PURE) Screen Using HepaRG and Primary Human Hepatocytes for Discovery of Novel HBV Antivirals” (ACS Med Chem Lett, 2020).

The source made the active and inactive calls. No cut-off for these calls is given here.

In data set [1] the target is T1, CYP2C9 (Homo sapiens, UniProt P11712). Kind of data set: Inhibition of CYP2C9 in HBV-infected human HepaRG cells at 10 mM using luciferin-H as substrate treated for 1 hr on day 5 post-infection followed by removal of media and supplemented with fresh media and further incubated for 3 days in presence of 50 uM SKF-525A by P450-Glo chemiluminescent assay relative to control. As to conditions: probe luciferin-H, with SKF-525A 50 uM. The data set is classed as ADME, tissue-based.
T1 sequence (P11712 whole entry): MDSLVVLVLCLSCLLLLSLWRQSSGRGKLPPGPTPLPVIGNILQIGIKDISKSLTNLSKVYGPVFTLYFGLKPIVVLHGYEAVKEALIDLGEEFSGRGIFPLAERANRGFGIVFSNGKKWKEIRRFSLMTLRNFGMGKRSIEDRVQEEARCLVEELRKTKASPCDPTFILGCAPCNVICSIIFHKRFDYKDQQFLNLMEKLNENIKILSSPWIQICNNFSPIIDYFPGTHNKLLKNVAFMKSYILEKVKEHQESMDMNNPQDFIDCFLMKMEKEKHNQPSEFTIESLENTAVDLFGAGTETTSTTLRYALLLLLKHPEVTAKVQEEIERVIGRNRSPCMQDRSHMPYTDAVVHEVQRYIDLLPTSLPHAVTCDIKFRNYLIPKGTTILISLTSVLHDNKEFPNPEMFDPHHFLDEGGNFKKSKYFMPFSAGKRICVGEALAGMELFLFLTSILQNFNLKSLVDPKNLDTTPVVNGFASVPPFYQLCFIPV

The next data set addresses Cytochrome P450 3A4 (Homo sapiens, UniProt P08684). Kind of data set: Inhibition of CYP3A4 in HBV-infected human HepaRG cells at 0.2 to 20 mM using luciferin-IPA as substrate treated for 1 hr on day 5 post-infection followed by removal of media and supplemented with fresh media and further incubated for 3 days then followed by treatment for 1 hr on day 8 post-infection followed by removal of media and supplemented with fresh media and further incubated for 3 days and measured on day 11 post-infection by P450-Glo chemiluminescent assay. The data set is classed as ADME, tissue-based. As to conditions: 20000 µM, dose 0.2-20 mM.

Data set [2] has as its system Hepatocyte. The experiment in a line: Cytotoxicity against human primary hepatocytes infected with HBV assessed as reduction in cell viability at 10 mM treated for 1 hr on day 5 post-infection followed by removal of media and supplemented with fresh media and further incubated for 3 days then followed by treatment for 1 hr on day 8 post-infection followed by removal of media and supplemented with fresh media and further incubated for 3 days in presence of 50 uM SKF-525A and measured on day 11 post-infection by Celltiter-Glo assay relative to control. The data set is classed as cell-based.

For data set [3], the target named is T2, CYP3A4 (Homo sapiens, UniProt P08684). Kind of data set: Inhibition of CYP3A4 in HBV-infected human HepaRG cells at 10 mM using luciferin-IPA as substrate treated for 1 hr on day 5 post-infection followed by removal of media and supplemented with fresh media and further incubated for 3 days then followed by treatment for 1 hr on day 8 post-infection followed by removal of media and supplemented with fresh media and further incubated for 3 days in presence of 50 uM SKF-525A and measured on day 11 post-infection by P450-Glo chemiluminescent assay relative to control. The conditions noted are these: probe luciferin-IPA, with SKF-525A 50 uM. In kind it is ADME, tissue-based.
T2 sequence (P08684 whole entry): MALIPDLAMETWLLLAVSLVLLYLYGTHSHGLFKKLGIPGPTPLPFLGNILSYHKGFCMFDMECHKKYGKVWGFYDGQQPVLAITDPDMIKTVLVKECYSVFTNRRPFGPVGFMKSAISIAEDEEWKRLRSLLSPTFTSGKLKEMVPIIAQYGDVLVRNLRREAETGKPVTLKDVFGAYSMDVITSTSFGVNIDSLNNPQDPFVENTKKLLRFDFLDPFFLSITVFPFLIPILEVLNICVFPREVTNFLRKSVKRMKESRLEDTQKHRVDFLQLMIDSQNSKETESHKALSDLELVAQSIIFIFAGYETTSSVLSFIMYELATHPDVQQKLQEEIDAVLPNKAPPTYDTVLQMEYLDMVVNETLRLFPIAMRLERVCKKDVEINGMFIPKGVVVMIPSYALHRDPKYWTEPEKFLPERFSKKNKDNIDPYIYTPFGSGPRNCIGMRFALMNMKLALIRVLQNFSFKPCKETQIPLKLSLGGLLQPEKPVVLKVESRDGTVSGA

Data set [4] has as its target T1, CYP2C9. Kind of data set: Inhibition of CYP2C9 in HBV-infected human HepaRG cells at 50 uM using luciferin-H as substrate treated for 1 hr on day 5 post-infection followed by removal of media and supplemented with fresh media and further incubated for 3 days in presence of 10 mM ABT by P450-Glo chemiluminescent assay relative to control. As to conditions: probe luciferin-H, with ABT 10 mM. The data set is classed as ADME, tissue-based.

Data set [5] concerns the target T2, CYP3A4. Kind of data set: Inhibition of CYP3A4 in HBV-infected human HepaRG cells at 50 uM using luciferin-IPA as substrate treated for 1 hr on day 5 post-infection followed by removal of media and supplemented with fresh media and further incubated for 3 days then followed by treatment for 1 hr on day 8 post-infection followed by removal of media and supplemented with fresh media and further incubated for 3 days in presence of 10 mM ABT and measured on day 11 post-infection by P450-Glo chemiluminescent assay relative to control. In kind it is ADME, tissue-based. As to conditions: probe luciferin-IPA, with ABT 10 mM.

Another data set concerns the target Cytochrome P450 2C9 (Homo sapiens, UniProt P11712). Kind of data set: Inhibition of CYP2C9 in HBV-infected human HepaRG cells at 5 to 100 uM using luciferin-H as substrate treated for 1 hr on day 5 post-infection followed by removal of media and supplemented with fresh media and further incubated for 3 days then followed by treatment for 1 hr on day 8 post-infection followed by removal of media and supplemented with fresh media and further incubated for 3 days and measured on day 11 post-infection by P450-Glo chemiluminescent assay. The data set is classed as ADME, tissue-based. As to conditions: dose 5-100 µM.

In data set [6] the target is T2, CYP3A4. The experiment in a line: Inhibition of CYP3A4 in HBV-infected human HepaRG cells at 50 uM using luciferin-IPA as substrate treated for 1 hr on day 5 post-infection followed by removal of media and supplemented with fresh media and further incubated for 3 days in presence of 10 mM ABT by P450-Glo chemiluminescent assay relative to control. The data set is classed as ADME, tissue-based. The conditions noted are these: probe luciferin-IPA, with ABT 10 mM.

The target of another data set is T3, CYP1A2 (Homo sapiens, UniProt P05177).
T3 sequence (P05177 whole entry): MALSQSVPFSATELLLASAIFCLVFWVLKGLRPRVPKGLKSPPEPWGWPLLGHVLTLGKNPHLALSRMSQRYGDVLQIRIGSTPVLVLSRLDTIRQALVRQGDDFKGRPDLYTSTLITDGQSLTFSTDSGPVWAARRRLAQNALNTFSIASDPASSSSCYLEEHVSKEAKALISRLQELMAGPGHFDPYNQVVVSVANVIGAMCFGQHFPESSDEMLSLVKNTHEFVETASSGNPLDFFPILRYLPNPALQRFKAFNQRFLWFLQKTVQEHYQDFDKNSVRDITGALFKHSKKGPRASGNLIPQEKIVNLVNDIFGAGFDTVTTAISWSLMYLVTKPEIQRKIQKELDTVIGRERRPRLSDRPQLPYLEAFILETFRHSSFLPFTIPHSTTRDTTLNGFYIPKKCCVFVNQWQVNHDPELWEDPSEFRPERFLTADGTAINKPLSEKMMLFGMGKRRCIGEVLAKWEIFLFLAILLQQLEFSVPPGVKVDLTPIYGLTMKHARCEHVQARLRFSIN
Kind of data set: Inhibition of CYP1A2 in HBV-infected human HepaRG cells at 50 uM using luciferin-1A2 as substrate treated for 1 hr on day 5 post-infection followed by removal of media and supplemented with fresh media and further incubated for 3 days in presence of 10 mM ABT by P450-Glo chemiluminescent assay relative to control. The data set is classed as ADME, tissue-based. The conditions noted are these: probe luciferin-1A2, with ABT 10 mM.

Data set [7] concerns Hepatocyte. The experiment in a line: Cytotoxicity against human primary hepatocytes infected with HBV assessed as reduction in cell viability at 50 uM treated for 1 hr on day 5 post-infection followed by removal of media and supplemented with fresh media and further incubated for 3 days then followed by treatment for 1 hr on day 8 post-infection followed by removal of media and supplemented with fresh media and further incubated for 3 days in presence of 10 mM ABT and measured on day 11 post-infection by Celltiter-Glo assay relative to control. In kind it is cell-based.

The test system of a further data set is Hepatitis B virus. Kind of data set: Antiviral activity against Hepatitis B virus infected in human primary hepatocytes assessed as reduction in HbsAg secretion level at 50 uM treated for 1 hr on day 5 post-infection followed by removal of media and supplemented with fresh media and further incubated for 3 days then followed by treatment for 1 hr on day 8 post-infection followed by removal of media and supplemented with fresh media and further incubated for 3 days in presence of 10 mM ABT and measured on day 11 post-infection by chemiluminescence immunostaining assay relative to control. The data set is classed as functional, organism-based. As to conditions: Primary hepatocyte.

The target of another data set is T4, Cytochrome P450 1A2 (Homo sapiens, UniProt P05177).
T4 sequence (P05177 whole entry): T3 sequence (P05177 whole entry)
The experiment in a line: Inhibition of CYP1A2 in HBV-infected human HepaRG cells at 5 to 100 uM using luciferin-1A2 as substrate treated for 1 hr on day 5 post-infection followed by removal of media and supplemented with fresh media and further incubated for 3 days then followed by treatment for 1 hr on day 8 post-infection followed by removal of media and supplemented with fresh media and further incubated for 3 days and measured on day 11 post-infection by P450-Glo chemiluminescent assay. As to conditions: dose 5-100 µM. In kind it is ADME, tissue-based.

Sequence of Cytochrome P450 2C9 (P11712 whole entry): as the sequence (P11712 whole entry) above
Sequence of Cytochrome P450 3A4 (P08684 whole entry): as the sequence (P08684 whole entry) above

Consider `Nn1nnc2ccccc21`, for which, at CYP2C9 [1], the inhibition at 1 h, 10000 µM is 36.9%. Moreover, the “inhibition (INH)” value against Cytochrome P450 3A4 was “Active”. The Activity in the data set on Hepatocyte [2] amounted to 10%. Besides, the inhibition at 2 h, 10000 µM on CYP3A4 [3] was 90.3%.

As to `CCCC(C(=O)OCCN(CC)CC)(c1ccccc1)c1ccccc1` [PROADIFEN], the inhibition at 1 h, 50 µM at CYP2C9 [4] amounted to 36.9%; at CYP3A4 [5], 90.3%; on CYP3A4 [6], 83.3%; on CYP1A2, 39.2%. The “inhibition (INH)” value on Cytochrome P450 2C9 and at Cytochrome P450 1A2 was “Active” each time. Moreover, the Activity in the data set with Hepatocyte [7] was 10%. For the same molecule, the result in the data set with Hepatitis B virus was inactive.
